Measured values published in patent publication US10745363B2 (NORATECH PHARMACEUTICALS, INC., priority 2016, dated 2020).
Structures can show the parent of a compound that is named as a salt. Each block holds one compound with its values, some of them ahead of it.

Key:
[1] = Determination of hygroscopicity (water absorption in open weighing bottle, artificial climate chamber); assay type: physicochemical; details: 25±1° C., relative humidity 43.5±2%; for Water absorption, %: open weighing bottle, disodium salt
Description: 1. Take a dry stuffed glass weighing bottle (outer diameter 50 mm, height 15 mm) in the artificial climate chamber (set temperature is 25±1° C., relative humidity is 43.5±2%) and weight it (m1).
2. Take the appropriate amount of the crystalline form in the present invention, and place it in the abovementioned weighing bottle and lay it inside the weighing bottle. The thickness of the test sample is generally about 1 mm. Weight the sample (m2).
3. Uncover the weighing bottle and place it with the bottle cap under constant temperature and humidity (set temperature is 25±1° C., relative humidity is 43.5±2%).
4. Put the cap back on the weighing bottle before weighing, and then weight it (m3). The water absorption percentage for each time point is calculated by the formula=(m3−m2)/(m2−m1)×100%.

[2] = cited from earlier work

Structure (SMILES): CCCCC(=O)N(Cc1ccc(-c2ccccc2-c2nnn[nH]2)cc1)[C@H](C(=O)O)C(C)C [Crystalline form A, valsartan disodium salt]
Water absorption, % ([1]; 2 h, listed as A): 1.6%
water absorption ([1]; 3 hours, open container): 2.6%
Water absorption, % ([1]; 4 h, listed as A): 2.0%
Water absorption, % ([1]; 24 h, listed as A): 2.4%

Structure (SMILES): CCCCC(=O)N(Cc1ccc(-c2ccccc2-c2nnn[nH]2)cc1)[C@H](C(=O)O)C(C)C [Crystalline form B, valsartan disodium salt]
Water absorption, % ([1]; 2 h, listed as B): 1.9%
Water absorption, % ([1]; 4 h, listed as B): 2.3%
Water absorption, % ([1]; 24 h, listed as B): 3.0%

Structure (SMILES): CCCCC(=O)N(Cc1ccc(-c2ccccc2-c2nnn[nH]2)cc1)[C@H](C(=O)O)C(C)C [Crystalline form D, valsartan disodium salt]
Water absorption, % ([1]; 2 h, listed as D): 1.3%
Water absorption, % ([1]; 4 h, listed as D): 1.9%
Water absorption, % ([1]; 24 h, listed as D): 2.7%

Structure (SMILES): CCCCC(=O)N(Cc1ccc(-c2ccccc2-c2nnn[nH]2)cc1)[C@H](C(=O)O)C(C)C [Valsartan sodium salt]
hygroscopicity (in words) ([2]; background statement): hygroscopic

Structure (SMILES): CCCCC(=O)N(Cc1ccc(-c2ccccc2-c2nnn[nH]2)cc1)[C@H](C(=O)O)C(C)C [valsartan disodium salt]
hygroscopicity ([2]; equilibrated in air, 5.36 mol H2O by elemental analysis (CN01813039.9)): up to 20%

Results, then the compound that gave them:

Water absorption, % ([1]; 2 h, listed as E): 2.1%
Water absorption, % ([1]; 4 h, listed as E): 2.9%
Water absorption, % ([1]; 24 h, listed as E): 3.6%
Structure (SMILES): CCCCC(=O)N(Cc1ccc(-c2ccccc2-c2nnn[nH]2)cc1)[C@H](C(=O)O)C(C)C [Crystalline form E, valsartan disodium salt]

Water absorption, % ([1]; 2 h, listed as F): 1.7%
Water absorption, % ([1]; 4 h, listed as F): 2.2%
Water absorption, % ([1]; 24 h, listed as F): 2.8%
Structure (SMILES): CCCCC(=O)N(Cc1ccc(-c2ccccc2-c2nnn[nH]2)cc1)[C@H](C(=O)O)C(C)C [Crystalline form F, valsartan disodium salt]

Water absorption, % ([1]; 2 h, listed as G): 0.7%
Water absorption, % ([1]; 4 h, listed as G): 1.3%
Water absorption, % ([1]; 24 h, listed as G): 1.5%
Structure (SMILES): CCCCC(=O)N(Cc1ccc(-c2ccccc2-c2nnn[nH]2)cc1)[C@H](C(=O)O)C(C)C [Crystalline form G, valsartan disodium salt]

Water absorption, % ([1]; 2 h, listed as H): 2.0%
Water absorption, % ([1]; 4 h, listed as H): 2.8%
Water absorption, % ([1]; 24 h, listed as H): 4.0%
Structure (SMILES): CCCCC(=O)N(Cc1ccc(-c2ccccc2-c2nnn[nH]2)cc1)[C@H](C(=O)O)C(C)C [Crystalline form H, valsartan disodium salt]
